Test results as given in patent publication EP0399653B1, “Anticonvulsant triazolo[4,5-c]pyridine derivatives” (THE WELLCOME FOUNDATION LIMITED, priority 1989, dated 1990).
Structures can show the parent of a compound that is named as a salt. Where two headings read alike, the source gives them in different places.

Experiment: standard maximal electroshock test (MES), anticonvulsant activity
Format: in vivo
Conditions: tested as HCl salt
Method: The anticonvulsant activity of certain compounds of the present invention were determined by a standard maximal electroshock test (MES); that described by L.A.Woodbury and V.D.Davenport, Arch. Int.Pharmacodyn, 1952 92 97.

[1] = ip, I.P administration, read-out: ED50.I.P
[2] = po, P.O administration, read-out: ED50.P.O

SMILES	ED50 [1]	ED50 [2]
CNc1nccc2c1nnn2Cc1cc(F)ccc1F [Example 7, 1-(2,5-difluorobenzyl)-4-(methylamino)-1H-1,2,3-triazolo [4,5-c]pyridine]	5 mg/kg	4.3 mg/kg
CNc1nccc2c1nnn2Cc1c(F)cccc1F [Example 5, 1-(2,6-difluorobenzyl)-4-(methylamino)-1H-1,2,3-triazolo [4,5-c] pyridine]	7.8 mg/kg	5.3 mg/kg
CN(C)c1nccc2c1nnn2Cc1ccccc1F [Example 4, 4-(dimethylamino)-1-(2-fluorobenzyl)-1H-1,2,3-triazolo [4,5-c]pyridine]	6.3 mg/kg	6.6 mg/kg
Fc1ccccc1Cn1nnc2c(NC3CC3)nccc21 [Example 2, 4-(cyclopropylamino)-1-(2-fluorobenzyl)-1H-1,2,3-triazolo [4,5-c] pyridine]	4.8 mg/kg	6.3 mg/kg
Fc1cccc(F)c1Cn1nnc2c(NC3CC3)nccc21 [Example 10, 4-(cyclopropylamino)-1-(2,6-difluorobenzyl)-1H-1,2,3-triazolo[4,5-c]pyridine]	4.1 mg/kg	8.1 mg/kg
CNc1nccc2c1nnn2Cc1ccccc1F [Example 1, 1-(2-fluorobenzyl)-4-(methylamino)-1H-1,2,3-triazolo[4,5-c]pyridine]	4.5 mg/kg	4.4 mg/kg
CCNc1nccc2c1nnn2Cc1ccccc1F [Example 3, 4-(ethylamino)-1-(2-fluorobenzyl)-1H-1,2,3-triazolo[4,5-c] pyridine]	8.3 mg/kg	10.3 mg/kg
CNc1nccc2c1nnn2Cc1ccccc1 [Example 8, 1-benzyl-4-(methylamino)-1H-1,2,3-triazolo[4.5-c]pyridine]	7.8 mg/kg	8.9 mg/kg
Nc1nccc2c1nnn2Cc1c(F)cccc1F [Example 6, 4-amino-1-(2,6,-difluorobenzyl)-1H-1,2,3-triazolo [4,5-c]pyridine hydrochloride]	6.3 mg/kg	3.7 mg/kg
